Reference: paper PMC3748812 (Angewandte Chemie (International ed. in English), 2013)

Columns and labels:
Type in all cases: biochemical
[1] = target: T1, ethylbenzene dehydrogenase (EbDH) (Aromatoleum aromaticum, UniProt Q5P5I0); assay: ethylbenzene hydroxylation activity assay; conditions: native substrate; Km in text is cited from an earlier paper
[2] = target: T1, ethylbenzene dehydrogenase (EbDH); assay: inhibition of ethylbenzene-dependent activity, dose response; conditions: substrate ethylbenzene; preincubated with inhibitor
[3] = target: T1, ethylbenzene dehydrogenase (EbDH); assay: inhibition of ethylbenzene-dependent activity; conditions: substrate ethylbenzene

Row | IC50 [2] | SMILES | also measured
1 |  | CCc1ccccc1 [ethylbenzene] | ethylbenzene hydroxylation activity assay [1]: Nonlinear plots of the remaining ethylbenzene-dependent activity of EbDH
2 | 100 µM | CCB1C=CC=CN1 [B-ethyl-1,2-azaborine] | 
3 | 2.8 µM | CCN1BC=CC=C1 [N-ethyl-1,2-azaborine] | 
4 |  | CCn1ccnc1 [N-ethylimidazole] | IC50 [3]: 2200 µM
